According to patent US10653658B2, “Biofilm inhibiting compositions enhancing weight gain in livestock” (Akeso Biomedical, Inc., priority 2015, dated 2020):
Where two headings read alike, the source gives them in different places. Marks after values point to notes of the source that are not given here.

Key:
[1] = system: Pseudomonas aeruginosa PAO-1 strain
Procedure: Pseudomonas aeruginosa PAO-1 strain was routinely grown on either LB (Luria-Bertani, Oxoid, UK) agar plates at 37° C. or in broth at 37° C. with 200 rpm shaking. UV-sterilized glass slides were incubated in either 15 mL RPMI-1640 defined medium (Sigma, UK) or 15 mL RPMI-1640 with Fe-Lac inoculated with diluted (OD600=0.01) bacteria from overnight cultures at 37° C. with 60 rpm shaking for 72 hours. The slides were removed from bacterial culture and washed with 15 mL phosphate buffered saline at room temperature for 5 minutes three times and then rinsed with distilled H2O. After washing, the slides were stained with 20 μM SYTO17 dye (Invitrogen, UK) at room temperature for 30 minutes. After removing excess staining dye and air-drying, the samples were examined using a Carl Zeiss LSM 700 Laser Scanning Microscope with ZEN 2009 imaging software (Carl Zeiss, Germany). The coverage rate of bacteria on the surface was analysed using open source Image J 1.44 software (National Institute of Health, US).
Pseudomonas aeruginosa PAO-1 strain was routinely grown on either LB (Luria-Bertani, Oxoid, UK) agar plates at 37° C. or in broth at 37° C. with 200 rpm shaking. UV-sterilized glass slides were incubated in either 15 mL RPMI-1640 defined medium (Sigma, UK) or 15 mL RPMI-1640 with Fe-Cit inoculated with diluted (OD600=0.01) bacteria from overnight cultures at 37° C. with 60 rpm shaking for 72 hours. The slides were removed from bacterial culture and washed with 15 mL phosphate buffered saline at room temperature for 5 minutes three times and then rinsed with distilled H2O. After washing, the slides were stained with 20 μM SYTO17 dye (Invitrogen, UK) at room temperature for 30 minutes. After removing excess staining dye and air-drying, the samples were examined using a Carl Zeiss LSM 700 Laser Scanning Microscope with ZEN 2009 imaging software (Carl Zeiss, Germany). The coverage rate of bacteria on the surface was analysed using open source Image J 1.44 software (National Institute of Health, US).
Pseudomonas aeruginosa PAO-1 strain was routinely grown on either LB (Luria-Bertani, Oxoid, UK) agar plates at 37° C. or in broth at 37° C. with 200 rpm shaking. […] The slides were removed from bacterial culture and washed with 15 mL phosphate buffered saline at room temperature for 5 minutes three times and then rinsed with distilled H2O. After washing, the slides were stained with 20 μM SYTO17 dye (Invitrogen, UK) at room temperature for 30 minutes. After removing excess staining dye and air-drying, the samples were examined using a Carl Zeiss LSM 700 Laser Scanning Microscope with ZEN 2009 imaging software (Carl Zeiss, Germany). The coverage rate of bacteria on the surface was analysed using open source Image J 1.44 software (National Institute of Health, US).
Pseudomonas aeruginosa PAO-1 strain was routinely grown on either LB (Luria-Bertani, Oxoid, UK) agar plates at 37° C. or in broth at 37° C. with 200 rpm shaking. UV-sterilized glass slides were incubated in either 15 mL RPMI-1640 defined medium (Sigma, UK) or 15 mL RPMI-1640 with Fe-Gly inoculated with diluted (OD600=0.01) bacteria from overnight cultures at 37° C. with 60 rpm shaking for 72 hours. The slides were removed from bacterial culture and washed with 15 mL phosphate buffered saline at room temperature for 5 minutes three times and then rinsed with distilled H2O. […] The coverage rate of bacteria on the surface was analysed using open source Image J 1.44 software (National Institute of Health, US).

[2] = 0.2 g/L in drinking water; weaner pigs
Source text: Animal Details • Number of treatments: 4 treatments • Number of replicates: 4 pens • Number of animals per pen: 4 pigs (balanced for sex as much as possible) • Number of pens in study: 16 pens • Animal species and breed: newly weaned pigs (Large White×Landrace) • Total number of animals: 64
There were four (4) treatments, each having 4 replicate pens with 4 pigs per replicate pen, i.e. 16 pigs per treatment or 64 pigs in total.
The feeds used were standard commercial, non-medicated feeds, tailored for weaner pigs. The feeds were offered as a 3 mm pellet and ad libitum. Water will also be available ad libitum.
The Ethology 3 building of SRUC's Easter Howgate Pig Unit were used in this study. This house consists of 6 rooms, each with 4 pens, so holds up to 24 pens of 4 m^2 each; for this study, 4 rooms were used. The animal house, which is an environmentally controlled building, were sanitized prior to use and between rounds. Pigs were placed at weaning on a thick layer of fresh white wood shavings or straw in pens. Pens were balanced as much as possible for litter origin and sex (2 intact males and 2 females). Pens were bedded with additional sawdust or straw as required, and were equipped with a single feeder and nipple drinker. Foods were available ad libitum throughout. Water were supplied via measured bottles per pen, and also available. Environmental temperature were maintained at 26° C. for the first 4 days after weaning and then decreased by 2° C. for the remainder of the experiment. Lights were on from 08:00 am till 18:00 μm and night-lights maintained between 18:00 μm and 08:00 am.
Pigs were individually weighed at day 0, 6 and 13. Pigs removed or found dead weighed, and date noted.
The volume of feed offered per pen was recorded daily from day 0 until day 12, inclusive. Feed refusals were recorded daily from day 1 until day 13, inclusive.
Pig weights, feed offered and feed refusals were used to determine averaged daily weight gain, daily feed intake and feed conversion ratio, over day 0 to 6, 6 to 13, as well as 0 to 13.
From day 0 until day 13, the volume of water offered per pen was recorded daily and water levels were recorded from the water bottles prior to morning feeding before tupping up.
Data gathered were analyzed using analysis of variance (ANOVA), to test for the effect of Fe-complex provision per se and Fe-complex type. Treatments were allocated in blocks within Ethology 3, as each of the four proposed treatments were in each of the four rooms used. As such, rooms were used as block in the model. Effects were considered significant at P<0.05.

lactobacilli = assay: Faecal lactobacilli counts and L:C ratio in weaner pigs (Example 7); format: in vivo; conditions: 0.2 g/L in drinking water; one male pig per pen
Source text: (§1) Faeces, cleanliness and health scores was taken daily (Appendix). Faecal scores especially are indicative of diarrhea incidence, and are used in the industry as a general easy to observe gut health indicator. […] Faecal samples were stored under conditions allowing submission to SAC Veterinary Services for quantification of lactobacilli and coliforms, and their ratio (L:C ratio). These are used as key indicators for gut health, with a greater L:C ratio being indicative to better gut health.

Campylobacter jejuni = assay: Campylobacter carriage in chickens after oral challenge, caecal contents at day 35 (Example 9); format: in vivo; conditions: 340 μM in the drinking water
Procedure: A study was performed to evaluate reduction of Campylobacter carriage in chickens using ferric lactate in one treatment group, and FeQ (Q-PLEX) in a second treatment group. A third treatment group served as a positive control. The ferric lactate and FeQ were administered to the treatment groups at a concentration of 340 μM in the drinking water. Each treatment group comprised 12 birds per pen. All three treatment groups were orally challenged with 10^5 cfu of Campylobacter jejuni at day 14 of the trial. At day 35 all birds were euthanized, and quantitative bacteriology performed on caecal contents.

E. coli = assay: Faecal E. coli counts in weaner pigs (Example 7); format: in vivo; conditions: 0.2 g/L in drinking water; one male pig per pen
Source text: as §1

[3] = system: Campylobacter jejuni NCTC 11168; assay: Biofilm formation on plastic coated UV beads (Example 6); conditions: Fe-Tart and Fe-Cit at 50, 100, and 300 μM; FeQ (QPLEX) at 300
[4] = Calf health scoring: body temperature, faeces quality, coughing, nasal discharge, antibiotic treatments (Example 11)
Procedure: A study was performed to evaluate the potential of ferric citrate (CI-PLEX™ CHELATE) to improve calf health, welfare, and performance. A total of 80 rearing calves (German Holstein) were used from d 12 to d 68 of age. 40 calves were fed a basal milk replacer (T1 Control). For comparison, 40 calves were fed the basal milk replacer with addition of ferric (III) citrate (T2 CI-PLEX™ CHELATE, 500 g/tonne feed) with a microtracer present at a rate of 10%, equivalent to 50 g/tonne for product identification purposes only. The basal milk replacer was supplemented with ferrous (II) sulfate at normal commercial rates (supplying 85 g Fe/tonne feed). T2 was also supplemented with normal commercial practice of Fe (ferrous (II) sulfate at 85 g Fe/tonne feed) with Fe at 85 g/tonne feed from the ferric (III) citrate (CI-PLEX™ CHELATE). […] The basal milk replacer batch was produced, and then split into 2 aliquots prior to adding the different inorganic or organic Fe sources to T1, and T2 diets. Calves were housed in rearing units, each unit with pens on either side of a central aisle.
The following parameters were measured: mean pen body weight (BW), feed intake (FI), body weight gain (BWG), feed conversion ratio (FCR, feed:gain) at study start and on days 7, 14, 21, 28, 35, 42, 49 and 56 days on trial. In addition, the following were also recorded: body temperature, faeces quality, coughing score, and nasal discharge.
The scoring of faecal consistency and of rectal temperature, coughing, nasal discharge as well as eye and ear scores were ranked daily.

[5] = Zootechnical efficacy of ferric citrate in milk replacer for rearing calves: body weight, feed intake, gain, FCR (Example 11); format: in vivo, rearing calves (German Holstein); conditions: milk replacer: T1 Fe(II) sulfate 85 g Fe/tonne, T2 plus ferric citrate 500 g/tonne feed
Procedure: The composition of the basal calf milk replacer is shown in Table 36, and the feeding schedule in Table 37.
The milk replacer was dissolved in warm water at around 50° C. The concentration was 125 grams per liter. The drinking temperature was kept at 38 to 40° C.
Additionally, a commercial calf starter feed (mash) without phytogenics, probiotics, organic acids or enzymes was provided. Straw was also provided in pre-weighed amounts throughout the 56 day feeding period.

[6] = Score 0: normal, 1: slightly disorder, 2: middle disorder, 3: severe disorder

For NCC(=O)[O-].NCC(=O)[O-].NCC(=O)[O-].[Fe+3] [Fe-Gly, Ferric glycinate], the “biofilm formation (coverage rate on glass slide)” value ([1]; 300 μM, 72 hours) was “able to inhibit biofilm formation” and the “biofilm formation (coverage rate on glass slide)” value ([1]; 100 and 300 μM, 72 hours) was “inhibits the formation of biofilm”.
In the case of CC(O)C(=O)O.CC(O)C(=O)O.CC(O)C(=O)O.[Fe] (centres unmarked) [Fe-Lac, ferric lactate], the “Averaged body weight gain, days 0 to 4 post weaning” value [2] is reported as 153 g/day/pig, the “Averaged body weight gain, days 0 to 7 post weaning” value [2] is reported as 172 g/day/pig and the “Averaged body weight gain, days 0 to 14 post weaning” value [2] is reported as 380 g/day/pig. For the same molecule, the “Averaged body weight gain, days 4 to 7 post weaning” value [2] was 197 g/day/pig, the “Averaged body weight gain, days 7 to 14 post weaning” value [2] was 587 g/day/pig and the “Averaged daily feed intake, days 0 to 4 post weaning” value [2] was 154 g/day/pig. For the same molecule, the “Averaged daily feed intake, days 0 to 7 post weaning” value [2] was 223 g/day/pig, the “Averaged daily feed intake, days 0 to 14 post weaning” value [2] was 378 g/day/pig and the “Averaged daily feed intake, days 4 to 7 post weaning” value [2] was 315 g/day/pig. For the same molecule, the “Averaged daily feed intake, days 7 to 14 post weaning” value [2] was 532 g/day/pig, the “Body weights, day 0 post weaning” value [2] was 9.74 kg/pig and the “Body weights, day 4 post weaning” value [2] was 10.35 kg/pig. For the same molecule, the “Body weights, day 7 post weaning” value [2] was 10.94 kg/pig, the “Body weights, day 14 post weaning” value [2] was 15.05 kg/pig and the “Feed conversion ratio, days 0 to 4 post weaning” value [2] was 0.54 g/g. The “Feed conversion ratio, days 0 to 7 post weaning” value [2] was 2.67 g/g, the “Feed conversion ratio, days 0 to 14 post weaning” value [2] was 1.00 g/g and the “Feed conversion ratio, days 7 to 14 post weaning” value [2] was 0.91 g/g. The “biofilm formation (coverage rate on glass slide), dispersion effect (FIG. 5B)” value ([1]; 10, 50, and 100 μM) was “inhibits the formation of biofilm”, the “biofilm formation (coverage rate on glass slide), titration effect (FIG. 5A)” value ([1]; 50, 100, and 300 μM, 72 hours) was “inhibits the formation of biofilm” and the “Faecal lactobacilli counts, day 0 post weaning” value (lactobacilli) was 8.68 10log cfu/g. The “Faecal lactobacilli counts, day 4 post weaning” value (lactobacilli) was 8.76 10log cfu/g, the “Faecal lactobacilli counts, day 7 post weaning” value (lactobacilli) was 8.97 10log cfu/g and the “Faecal lactobacilli counts, day 14 post weaning” value (lactobacilli) was 8.77 10log cfu/g. For the same molecule, the “Lactobacilli to E. coli ratio (L:C), day 0 post weaning” value (lactobacilli) was 1.03, the “Lactobacilli to E. coli ratio (L:C), day 4 post weaning” value (lactobacilli) was 1.08 and the “Lactobacilli to E. coli ratio (L:C), day 7 post weaning” value (lactobacilli) was 1.33. For the same molecule, the “Lactobacilli to E. coli ratio (L:C), day 14 post weaning” value (lactobacilli) was 1.45, the “levels of Campylobacter in caeca at day 35, comparison between treatments (FIG. 11)” value (Campylobacter jejuni) was “lowest levels” and the “levels of Campylobacter in caeca at day 35 compared with positive control (FIG. 11)” value (Campylobacter jejuni; oral challenge at day 14) was “lower levels of Campylobacter in their caeca”. The “Faecal E. coli counts, day 0 post weaning” value (E. coli) was 8.40 10log cfu/g, the “Faecal E. coli counts, day 4 post weaning” value (E. coli) was 7.80 10log cfu/g and the “Faecal E. coli counts, day 7 post weaning” value (E. coli) was 6.37 10log cfu/g. The “Faecal E. coli counts, day 14 post weaning” value (E. coli) was 5.98 10log cfu/g.
For O=C([O-])C(O)C(O)C(=O)[O-].O=C([O-])C(O)C(O)C(=O)[O-].O=C([O-])C(O)C(O)C(=O)[O-].[Fe+3].[Fe+3] (centres unmarked) [Fe-Tart, ferric tartrate], the “C. jejuni biofilm formation on plastic coated UV beads (FIG. 9)” value [3] was “inhibited C. jejuni biofilm formation”, the “biofilm formation (coverage rate on glass slide)” value ([1]; 100 and 300 μM, 72 hours) was “inhibits the formation of biofilm” and the “Faecal lactobacilli counts, day 0 post weaning” value (lactobacilli) was 8.84 10log cfu/g. For the same molecule, the “Faecal lactobacilli counts, day 4 post weaning” value (lactobacilli) was 8.94 10log cfu/g, the “Faecal lactobacilli counts, day 7 post weaning” value (lactobacilli) was 9.48 10log cfu/g and the “Faecal lactobacilli counts, day 14 post weaning” value (lactobacilli) was 8.79 10log cfu/g. The “Faecal E. coli counts, day 0 post weaning” value (E. coli) was 8.67 10log cfu/g, the “Faecal E. coli counts, day 4 post weaning” value (E. coli) was 6.42 10log cfu/g and the “Faecal E. coli counts, day 7 post weaning” value (E. coli) was 6.51 10log cfu/g. For the same molecule, the “Faecal E. coli counts, day 14 post weaning” value (E. coli) was 6.43 10log cfu/g.
With O=S(=O)([O-])[O-].[Fe+2] [Fe (II)sulfate] the “Mean daily body temperature score 1-56 d of rearing” value [4, 6] was 0.09 ± 0.11^a, the “Mean daily coughing score 1-56 d of rearing” value [4, 6] was 0.51 ± 0.13 and the “Mean daily ear score 1-56 d of rearing” value [4, 6] was 0.04 ± 0.07. For the same molecule, the “Mean daily eye score 1-56 d of rearing” value [4, 6] was 0.04 ± 0.07, the “Mean daily faecal score 1-56 d of rearing” value [4, 6] was 0.68 ± 0.14 and the “Mean daily nasal discharge score 1-56 d of rearing” value [4, 6] was 0.44 ± 0.12. The “% excluded, 1-56 d of rearing” value ([4]; bovine, in vivo) was 0%, the “No calves excluded, 1-56 d of rearing” value ([4]; bovine, in vivo) was 1 and the “No calves treated with antibiotics, 1-56 d of rearing” value ([4]; of 40 calves per treatment) was 3. The “ADFI 1-21 d of rearing” value [5] was 804 ± 38 g, the “ADFI 1-56 d of rearing” value [5] was 1.49 ± 0.02 kg and the “ADFI 22-56 d of rearing” value [5] was 1.90 ± 0.02 kg. The “ADG 1-21 d of rearing” value [5] was 268 ± 30^a g, the “ADG 1-56 d of rearing” value [5] was 723 ± 36^a g and the “ADG 22-56 d of rearing” value [5] was 792 ± 48^a g. The “FCR 1-21 d of rearing” value [5] was 1.339 ± 0.142^a feed:gain, the “FCR 1-56 d of rearing” value [5] was 2.065 ± 0.100^a feed:gain and the “FCR 22-56 d of rearing” value [5] was 2.408 ± 0.148^a feed:gain. For the same molecule, the “Mean BW at d 56 of rearing” value [5] was 91.9 ± 2.0^a kg.
